Experimental data taken from a polymer gas permeability compilation.

Row | SMILES | N2 permeability [Barrer] | O2 permeability [Barrer] | CO2 permeability [Barrer] | H2 permeability [Barrer]
1 | *=CC1CC(C=*)C(COS(=O)(=O)c2ccc(C)cc2)C1 (repeat unit) | 0.06 | 0.37 | – | –
2 | *C(=C(*)c1ccc(S(=O)(=O)O)cc1)c1ccc(C(C)(C)C)cc1 (repeat unit) | 11 | 45 | 340 | –
3 | *C(=C(*)c1ccc(S(=O)(=O)O)cc1)c1ccc(S(=O)(=O)O)cc1 (repeat unit) | 0.28 | 2.5 | 21 | –
4 | *C(=C(*)c1ccc([Si](C)(C)CCCCCCCC)cc1)c1ccc(CCCC)cc1 (repeat unit) | 7.9 | 25 | 110 | –
5 | *C(C(=O)OC(C)C)C(*)C(=O)OC(C)(C)C (repeat unit) | 9 | 21 | – | 133
6 | *C(C(=O)OC(C)C)C(*)C(=O)OC1CCCCC1 (repeat unit) | 3 | 8 | – | 41
7 | *C(C(=O)OC1CCCCC1)C(*)C(=O)OC(C)(C)C (repeat unit) | 5 | 17 | – | 72
8 | *CC(*)(C)C (repeat unit) | 0.76 | 2.89 | – | 13.3
9 | *CC(*)c1ccc(O)cc1 (repeat unit) | 0.015 | 0.12 | – | –
10 | *CC(C#N)(C#N)CC(*)OC(C)=O (repeat unit) | 0.0138 | 0.16 | – | –
11 | *CC1CC(*)OCO1 (repeat unit) | 0.018 | 0.024 | – | 0.93
12 | *O[Si](*)(C)CCCCCC (repeat unit) | 103 | 236 | – | –
13 | *Oc1cc2c(cc1O*)C1(CC2(C)C)CC(C)(C)c2cc3c(cc21)Oc1c(c(C(F)(F)F)c(*)c(*)c1S(=O)(=O)c1ccccc1)O3 (repeat unit) | 116 | 434 | 2160 | –
14 | *Oc1ccc(S(=O)(=O)c2ccc(Oc3c(C)cc(C(c4cc(C)c(*)c(C)c4)(C(F)(F)F)C(F)(F)F)cc3C)cc2C(O)(C(F)(F)F)C(F)(F)F)c(C(O)(C(F)(F)F)C(F)(F)F)c1 (repeat unit) | 5.92 | 14 | 81 | –
15 | *Oc1ccc(S(=O)(=O)c2ccc(Oc3ccc(C(C)(C)c4ccc(*)c(C(O)(C(F)(F)F)C(F)(F)F)c4)cc3C(O)(C(F)(F)F)C(F)(F)F)cc2)cc1 (repeat unit) | 0.22 | 1.5 | 5.4 | –
16 | *Oc1ccc2nc(-c3ccccc3)c(-c3ccc(-c4nc5cc(*)ccc5nc4-c4ccccc4)cc3)nc2c1 (repeat unit) | – | – | – | 17.2
17 | *[Si](C)(C)CCCCCCCC[Si](*)(C)C (repeat unit) | 76.2 | 188 | – | –
18 | *[Si](C)(C)c1ccc([Si](*)(C)C)cc1 (repeat unit) | 3.39 | 14.1 | – | –
19 | *[Si](C)(C)c1cccc([Si](*)(C)C)c1 (repeat unit) | 31.9 | 75.6 | – | –

Row | SMILES | N2 permeability [Barrer] | O2 permeability [Barrer] | CO2 permeability [Barrer] | H2 permeability [Barrer]
20 | *c1c(C)cc(C)c(-n2c(=O)c3cc4c(=O)n(*)c(=O)c4cc3c2=O)c1C (repeat unit) | 8.44 | 36.3 | – | 235
21 | *c1c(C)cc(C)c(N2C(=O)c3ccc(C(=O)c4ccc5c(c4)C(=O)N(*)C5=O)cc3C2=O)c1C (repeat unit) | 1 | 5 | – | 46.4
22 | *c1c(C)cc(C)c(N2C(=O)c3ccc(Oc4ccc(Oc5ccc6c(c5)C(=O)N(*)C6=O)cc4)cc3C2=O)c1C (repeat unit) | 0.732 | 4.42 | – | 40
23 | *c1c(C)cc(C)c(N2C(=O)c3ccc(Sc4ccc5c(c4)C(=O)N(*)C5=O)cc3C2=O)c1C (repeat unit) | 1.62 | 8.2 | – | 68.6
24 | *c1ccc(-c2ccc(N3C(=O)c4ccc(C(=O)Oc5ccc(C(c6ccc(OC(=O)c7ccc8c(c7)C(=O)N(*)C8=O)cc6)(C(F)(F)F)C(F)(F)F)cc5)cc4C3=O)cc2)cc1 (repeat unit) | 0.0517 | 0.348 | – | 5.01
25 | *c1ccc(-c2ccc(N3C(=O)c4ccc([Si](C)(C)c5ccc6c(c5)C(=O)N(*)C6=O)cc4C3=O)cc2)cc1 (repeat unit) | 0.109 | 0.677 | – | 8.38
26 | *c1ccc(-c2nc3cc(-c4ccc5[nH]c(*)nc5c4)ccc3[nH]2)cc1 (repeat unit) | – | 0.004 | – | 0.16
27 | *c1ccc(Cc2ccc(N3C(=O)c4ccc(C(=O)Oc5ccc(C(c6ccc(OC(=O)c7ccc8c(c7)C(=O)N(*)C8=O)cc6)(C(F)(F)F)C(F)(F)F)cc5)cc4C3=O)cc2)cc1 (repeat unit) | 0.164 | 0.917 | – | 11.8
28 | *c1ccc(Cc2ccc(N3C(=O)c4ccc(C(=O)c5ccc6c(c5)C(=O)N(*)C6=O)cc4C3=O)cc2)cc1 (repeat unit) | 0.02 | 0.211 | – | 4.03
29 | *c1ccc(Cc2ccc(N3C(=O)c4ccc(Oc5ccc(C(c6ccc(Oc7ccc8c(c7)C(=O)N(*)C8=O)cc6)(C(F)(F)F)C(F)(F)F)cc5)cc4C3=O)cc2)cc1 (repeat unit) | 0.076 | 0.501 | – | 8.31
30 | *c1ccc(Oc2ccc(C(=O)c3ccc(Oc4ccc(C(*)(c5ccccc5)C(F)(F)F)cc4)cc3)cc2)cc1 (repeat unit) | 0.15 | 0.91 | 4.2 | 11
31 | *c1ccc(Oc2ccc(C(C)(C)c3ccc(Oc4ccc(N5C(=O)c6ccc(C(=O)c7ccc8c(c7)C(=O)N(*)C8=O)cc6C5=O)cc4)cc3)cc2)cc1 (repeat unit) | 0.11 | 0.54 | 2.8 | 8.9
32 | *c1ccc(Oc2ccc(N3C(=O)c4ccc(Oc5ccc(C(c6ccc(Oc7ccc8c(c7)C(=O)N(*)C8=O)cc6)(C(F)(F)F)C(F)(F)F)cc5)cc4C3=O)cc2)cc1 (repeat unit) | 0.084 | 0.55 | – | 8.95
33 | *c1ccc(Oc2ccc(N3C(=O)c4ccc(Oc5ccc6c(c5)C(=O)N(*)C6=O)cc4C3=O)cc2)cc1 (repeat unit) | 0.026 | 0.183 | – | 4.77
34 | *c1ccc(Oc2ccc(N3C(=O)c4ccc(S(=O)(=O)c5ccc6c(c5)C(=O)N(*)C6=O)cc4C3=O)cc2)cc1 (repeat unit) | 0.027 | 0.2 | – | 5.61
35 | *c1ccc2c(c1)C(=O)n1c-2nc2ccc(Oc3ccc4c(c3)nc3n4C(=O)c4ccc(*)cc4-3)cc21 (repeat unit) | 0.023 | 0.24 | – | 6.56
36 | *c1ccc2c(c1)nc1n2C(=O)c2ccc(C(=O)Oc3ccc(C(c4ccc(OC(=O)c5ccc6c(c5)C(=O)n5c-6nc6ccc(*)cc65)cc4)(C(F)(F)F)C(F)(F)F)cc3)cc2-1 (repeat unit) | 0.155 | 0.977 | – | 13.3
37 | *c1cccc(N2C(=O)c3ccc(Oc4ccc(Oc5ccc6c(c5)C(=O)N(*)C6=O)cc4)cc3C2=O)c1 (repeat unit) | 0.016 | 0.149 | 0.598 | 3.75
38 | *c1nc2cc(-c3ccc4[nH]c(-c5cc(Br)c(*)cc5Br)nc4c3)ccc2[nH]1 (repeat unit) | – | 0.07 | – | 1.89
